Our source for the IC50, Activity and viability values is ChEMBL document CHEMBL5608179, “Triptonide induces apoptosis and inhibits the proliferation of ovarian cancer cells by activating the p38/p53 pathway and autophagy” (Bioorg Med Chem, 2024).

The test system of experiment [1] is A2780. The experiment can be described thus: Cytotoxicity against human A2780 cells assessed as cell viability measured after 48 hrs by MTT assay. Format: functional, cell-based. The note with it: A2780, 48 h.
Experiment [2] concerns A2780. The experiment can be described thus: Induction of apoptosis in human A2780 cells assessed as early apoptotic cells at 800 nM measured after 24 hrs by Annexin V-FITC/PI flow cytometry (reference value: 2.17%). Format: functional.
Experiment [3] deals with A2780. The experiment can be described thus: Induction of apoptosis in human A2780 cells assessed as necrotic cells at 800 nM measured after 24 hrs by Annexin V-FITC/PI flow cytometry (reference value: 0.18%). Format: functional.
The test system of experiment [4] is A2780. The experiment can be described thus: Induction of apoptosis in human A2780 cells assessed as viable cells at 800 nM measured after 24 hrs by Annexin V-FITC/PI flow cytometry (reference value: 96.1%). The settings on record: read-out: Activity. It is filed as functional.
Experiment [5] deals with A2780. The experiment can be described thus: Induction of apoptosis in human A2780 cells assessed as late apoptotic cells at 800 nM measured after 24 hrs by Annexin V-FITC/PI flow cytometry (reference value: 1.58%). It is filed as functional.
The next experiment concerns SK-OV-3. The experiment can be described thus: Cytotoxicity against human SK-OV-3 cells assessed as cell viability measured after 48 hrs by MTT assay. The note with it: SK-OV-3, 48 h. It is filed as functional, cell-based.
A further experiment relates to Huh-7. The experiment can be described thus: Cytotoxicity against human Huh-7 cells assessed as cell viability measured after 48 hrs by MTT assay. It is filed as functional, cell-based. The settings on record: Huh-7, 48 h.
In experiment [6] the test system is A2780. The experiment can be described thus: Induction of cell cycle arrest in human A2780 cells assessed as accumulation of cells at G1 phase at 20 uM measured after 24 hrs by PI staining based Cell Cycle Analysis Kit (KeyGEN) (reference value: 54.2%). Format: functional.
Experiment [7] has as its system A2780. The experiment can be described thus: Induction of apoptosis in human A2780 cells assessed as viable cells at 20 uM measured after 24 to 72 hrs by Annexin V-FITC/PI flow cytometry (reference value: 94.2%). Format: functional. The settings on record: time 24-72 hrs, read-out: Activity.
Experiment [8] deals with A2780. The experiment can be described thus: Induction of apoptosis in human A2780 cells assessed as late apoptotic cells at […] measured after 24 to 72 hrs by Annexin V-FITC/PI flow cytometry (reference value: 2.54%). The settings on record: time 24-72 hrs. Format: functional.
The subject of experiment [9] is A2780. The experiment can be described thus: Induction of apoptosis in human A2780 cells assessed as necrotic cells at 20 uM measured after 24 to 72 hrs by Annexin V-FITC/PI flow cytometry (reference value: 0.39%). It is filed as functional. The settings on record: time 24-72 hrs.
Experiment [10] deals with A2780. The experiment can be described thus: Induction of cell cycle arrest in human A2780 cells assessed as accumulation of cells at S phase at 20 uM measured after 24 hrs by PI staining based Cell Cycle Analysis Kit (KeyGEN) (reference value: 15%). It is filed as functional.
Experiment [11] concerns A2780. The experiment can be described thus: Induction of cell cycle arrest in human A2780 cells assessed as accumulation of cells at G2 phase at 20 uM measured after 24 hrs by PI staining based Cell Cycle Analysis Kit (KeyGEN) (reference value: 24.5%). Format: functional.
Experiment [12] relates to A2780. The experiment can be described thus: Induction of apoptosis in human A2780 cells assessed as early apoptotic cells at […] measured after 24 to 72 hrs by Annexin V-FITC/PI flow cytometry (reference value: 2.82%). It is filed as functional. The settings on record: time 24-72 hrs.

Where only a bound is given, the exact number is not on record here.

Consider `C[C@@]1(C(=O)O)CC[C@]2(C)CC[C@]3(C)C4=CC(=O)c5c(cc(O)c(O)c5C=O)[C@]4(C)CC[C@@]3(C)[C@@H]2C1`, for which the IC50 in the experiment with A2780 [1] is 10.1 µM.

Consider `C[C@]12CCC[C@@]3(COC1=O)[C@@H]1CC[C@@H]4C[C@@]1(CC[C@@H]32)C[C@@]4(C)O`, for which the IC50 with A2780 [1] was > 60 µM.

Take `C[C@@H]1[C@@]23CC[C@H]4[C@@](C)(CC[C@@]5(C)[C@@H]6C[C@](C)(C(=O)O)CC[C@]6(C)CC[C@]45C)[C@@H]2C[C@@H](O)[C@@]1(O)OC3`: the IC50 with A2780 [1] was > 60 µM.

In the case of `CC(=O)OC[C@]12[C@H](OC(C)=O)[C@H](OC(C)=O)[C@@H]3[C@@H](OC(C)=O)[C@@]14O[C@@]3(C)COC(=O)c1cccnc1CC[C@H](C)C(=O)O[C@@H]([C@H](OC(=O)c1ccccc1)[C@@H]2OC(C)=O)[C@]4(C)O`, the IC50 in the experiment with A2780 [1] was > 60 µM.

Take `CC(=O)OC[C@]12[C@H](OC(C)=O)[C@H](OC(C)=O)[C@@H]3[C@@H](OC(C)=O)[C@@]14OC3(C)COC(=O)c1cccnc1CCC(C)C(=O)O[C@@H]([C@H](OC(=O)c1ccoc1)[C@@H]2OC(C)=O)C4(C)O` (stereo not given in full): the IC50 with A2780 [1] was > 60 µM.

Take `CC1(C)[C@@H](O)CC[C@]2(C)[C@H]3CC=C4[C@@H]5C[C@@]6(C)C[C@H](OC6=O)[C@]5(C)CC[C@@]4(C)[C@]3(C)CC[C@@H]12` [3-EPIABRUSLACTONE A]: the IC50 in the experiment with A2780 [1] was > 60 µM.

Turning to `CO/C1=C\C(C)=C\[C@@H](C)[C@@H](O)[C@@H](C)C/C(C)=C/C=C/[C@H](OC)[C@@H]([C@@H](C)[C@@H](O)[C@H](C)[C@@]2(O)C[C@@H](O)[C@H](C)[C@@H](C(C)C)O2)OC1=O` [BAFILOMYCIN A1], the Activity in the experiment with A2780 [2] amounted to 3.33%; in the experiment on A2780 [3], 0.43%; in the experiment with A2780 [5], 2.27%. Besides, the viability at 0.8 µM in the experiment on A2780 [4] is 94%.

As for `CC1=C(O)C(=O)C=C2C1=CC=C1[C@@]2(C)CC[C@@]2(C)[C@@H]3C[C@](C)(C(=O)O)CC[C@]3(C)CC[C@]12C` [CELASTROL], in the experiment on A2780 [1], the 50% inhibitory concentration (IC50) stood at 1.57 µM.

Consider `COc1cccc2c1C(=O)c1c(O)c3c(c(O)c1C2=O)C[C@@](O)(C(=O)CO)C[C@@H]3O[C@H]1C[C@H](N)[C@@H](O)[C@H](C)O1` [EPIRUBICIN], for which the results for the IC50 with SK-OV-3, with A2780 [1] and in the experiment on Huh-7 were 0.498 µM, 1.28 µM and 0.495 µM, respectively.

As for `O=c1[nH]cc(F)c(=O)[nH]1` [FLUOROURACIL], the IC50 is 10.8 µM in the experiment on SK-OV-3, 3.93 µM with A2780 [1] and 28.5 µM in the experiment on Huh-7.

For `C[S+]([O-])c1ccc(-c2nc(-c3ccc(F)cc3)c(-c3ccncc3)[nH]2)cc1` (stereo not given) [SB-203580], the Activity is reported as 53.8% in the experiment on A2780 [6]; 4.27% in the experiment with A2780 [8]; 0.41% with A2780 [9]; 10% with A2780 [10]; 31.5% with A2780 [11]; 3.32% with A2780 [12]. In the experiment on A2780 [7], the viability at 20 µM was 92%.

As to `CC(C)c1ccc2c(c1O)CC[C@H]1C3=C(CC[C@]21C)C(=O)OC3` [TRIPTOPHENOLIDE], the IC50 in the experiment with A2780 [1] is > 60 µM.
